Laboratory results as given in patent US12419839B2, “Methods and compositions for targeted delivery of protein fragments” (Signablok, Inc., priority 2009, dated 2025).
Where no end group is shown, it is not given here.

Experiments:
[1] = test system: mice with CIA; conditions: sHDL-bound MG11 2.5 mg/kg
[2] = test system: GM-CSF, IFNγ, IL-1β, IL-2, IL-6, IL-17, M-CSF and TNFα; assay: serum cytokines in mice with CIA; format: in vivo; conditions: serum on day 38; MG11 and MG11-2G 25 mg/kg, sHDL-bound MG11 2.5 mg/kg; vs vehicle
[3] = test system: A549 xenograft; assay: A549 xenograft mouse model of NSCLC; format: in vivo; conditions: compared to the vehicle-treated group
Excerpt: FIG. 16 presents exemplary data showing that in drug-containing synthetic (recombinant) HDL (SLP, LPC), apolipoprotein can be replaced by synthetic apolipoprotein fragments without compromising the drug antitumor activity in an animal model. Bars, SEM. For statistical analysis, each treatment was compared with the vehicle control using Student's t test. **, P 0.001 to 0.01. Abbreviations: apo, apolipoprotein; HDL, high density lipoproteins; HDL (A-Iox), HDL with oxidized human apo A-I; HDL (PE22ox+PA22ox), HDL with a 1:1 mixture of synthetic peptides PE22ox and PA22ox that correspond to apo A-I helixes 4 and 6, respectively (SEE FIG. 12); dHDL and sHDL, discoidal and spherical HDL, respectively; LPC, lipoprotein/lipopeptide complexes; NSCLC, non-small cell lung cancer; PTX, paclitaxel; SLP, synthetic lipoprotein/lipopeptide particles; TREM-1, triggering receptor expressed on myeloid cells-1.
See, FIGS. 15 and 16. Here, A549 cells were injected subcutaneously into nude mice and randomized into treatment groups (n=10) once tumors reached an average of 200 mm^3. The treatment groups were: i) Vehicle (HDL containing no GF9); ii) paclitaxel (PTX) as a positive control; iii) GF9-dHDL (A-Iox); iv) GF9-sHDL (A-Iox); v) GF9-dHDL(PE22ox+PA22ox); and vi) GF9-sHDL(PE22ox+PA22ox) where each group received intraperitoneal injections twice a week. […]

With MWKTPTLKYFG [free MG11, MWKTPTLKYFG] the body weight ([1]; i.p. daily for 14 days, MG11 25 mg/kg) was “without affecting body weight”.

MWGTPTLGYFG [MG11-2G] was tested, and the serum cytokine release [2] was “no effect” and the “clinical severity of CIA” value ([1]; i.p. daily for 14 days from day 24, MG11 and MG11-2G 25 mg/kg, vs vehicle) was “no effect”.

For `CC(=O)O[C@H]1C(=O)[C@@]2(C)[C@H]([C@H](OC(=O)c3ccccc3)[C@]3(O)C[C@H](OC(=O)[C@H](O)[C@@H](NC(=O)c4ccccc4)c4ccccc4)C(C)=C1C3(C)C)[C@]1(OC(C)=O)CO[C@@H]1C[C@@H]2O` [PTX, paclitaxel], the “post necropsy excised tumors weights” value [3] was “significantly lower”.
